Target: T1, PRMT5/MEP50 (Homo sapiens, UniProt O14744)
T1 construct: Expressed full-length human Flag-PRMT5/6His-MeP50 protein complex was purified; made in house; host or cells: Spodoptera frugiperda (SF9) insect cells, baculovirus (pDEST8)
Test: PRMT5 Biochemical Assay (PRMT5/MEP50 enzyme assay on peptide substrate, 3H-SAM Flashplate)
Settings: PRMT5/MEP50 4 nM, 3H-SAM 75 nM, peptide 40 nM, 30 min preincubation at 25 degrees Celsius
Experimental: • Mobile phase A: 4 L H2O\1.5 ml TFA; Mobile phase B: 4 L ACN\0.75 ml TFA • Column: HPLC-D: Innovation C18 UPLC Column 2.1×30 mm, 2.6 um • HPLC-E: Xtimate C18 2.1*30 mm*3 um • HPLC-H: Innovation C18 UPLC Column 2.1×30 mm, 2.6 um • Column temperature: 50° C.; Wavelength: 220 nm & 254 nm & 215 nm General HPLC Conditions (Basic) • Mobile phase A: 4 L H2O\2 ml NH4OH; Mobile phase B: Acetonitrile • Column: HPLC-B: XBridge C18 2.1*50 mm, 5 um • HPLC-C: Xbridge shield RP18 2.1*50 mm, 5 u • Column temperature: 30° C.; Wavelength: 220 nm & 254 nm & 215 nm General HPLC Conditions (Neutral) • Mobile phase A: H2O; Mobile phase B: Acetonitrile • Column: HPLC-B: XBridge C18 2.1*50 mm, 5 um • HPLC-C: Xbridge shield RP18 2.1*50 mm, 5 um • Column temperature: 30° C.; Wavelength: 220 nm & 254 nm & 215 nm Method A (0-30AB_6MIN) Flow Rate: 0.8 ml/min Gradient: 0% B to 30% B in 4.2 min, holding 30% B for 1 min, 30% B to 0% B in 0.01 min, holding 0% B for 1.09 min and then end. Method B (0-60AB_6MIN) • Flow Rate: 0.8 ml/min • Gradient: 0% B to 60% B in 4.2 min, holding 60% B for 1 min, 60% B to 0% B in 0.01 min, holding 0% B for 1.09 min and then end. Method C (10-80AB_6MIN) • Flow Rate: 0.8 ml/min • Gradient: 10% B to 80% B in 4.2 min, holding 80% B for 1 min, 80% B to 10% B in 0.01 min, holding 10% B for 1.09 min and then end. […]

T1 sequence (O14744 with tags, fused parts or gaps): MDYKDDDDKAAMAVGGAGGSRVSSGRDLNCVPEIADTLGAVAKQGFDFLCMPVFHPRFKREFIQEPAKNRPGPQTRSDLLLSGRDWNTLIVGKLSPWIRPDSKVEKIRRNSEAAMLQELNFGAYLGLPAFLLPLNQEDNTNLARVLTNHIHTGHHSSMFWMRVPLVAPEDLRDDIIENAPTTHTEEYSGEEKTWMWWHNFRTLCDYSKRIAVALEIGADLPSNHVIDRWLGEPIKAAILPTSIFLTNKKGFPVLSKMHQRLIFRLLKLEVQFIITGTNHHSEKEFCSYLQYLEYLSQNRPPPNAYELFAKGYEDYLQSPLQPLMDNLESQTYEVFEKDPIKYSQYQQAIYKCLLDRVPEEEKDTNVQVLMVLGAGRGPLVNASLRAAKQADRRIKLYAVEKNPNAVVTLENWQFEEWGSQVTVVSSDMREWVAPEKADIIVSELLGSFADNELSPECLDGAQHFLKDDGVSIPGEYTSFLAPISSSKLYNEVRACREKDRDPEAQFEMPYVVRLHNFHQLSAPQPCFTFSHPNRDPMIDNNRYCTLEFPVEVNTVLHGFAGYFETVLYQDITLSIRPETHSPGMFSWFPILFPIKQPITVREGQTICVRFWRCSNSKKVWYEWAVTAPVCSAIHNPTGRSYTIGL
T1 sequence (Q9BQA1 with tags, fused parts or gaps partner limits assumed): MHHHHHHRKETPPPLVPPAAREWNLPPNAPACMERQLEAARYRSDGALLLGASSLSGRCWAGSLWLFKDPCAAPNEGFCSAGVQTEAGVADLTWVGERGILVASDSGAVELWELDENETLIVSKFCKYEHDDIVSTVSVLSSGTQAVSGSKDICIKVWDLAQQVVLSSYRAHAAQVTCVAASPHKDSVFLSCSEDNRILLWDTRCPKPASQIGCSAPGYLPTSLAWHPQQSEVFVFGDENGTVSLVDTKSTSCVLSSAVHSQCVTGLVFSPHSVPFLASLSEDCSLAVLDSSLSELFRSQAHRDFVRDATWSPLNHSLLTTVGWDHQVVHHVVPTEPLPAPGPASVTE

| IC50 [µM] | Compound |
| --- | --- |
| 1 to 10 | O=C(NC1CCOCC1)c1cc(=O)n(CC(O)CN2CCc3ccccc3C2)cn1 (centres unmarked) [Compound 34] |
| 0.101 to 1 | O=C(NC1CCOCC1)c1ccn(CC(O)CN2CCc3ccccc3C2)c(=O)c1 (centres unmarked) [Compound 33] |

— patent US9611257B2, “PRMT5 inhibitors and uses thereof” (Epizyme, Inc., priority 2012, dated 2017)
